By inhibition is commonly meant the relative decrease from the control value, in per cent.

This is an account of results in ChEMBL document CHEMBL2150882, “Discovery of a new molecular probe ML228: an activator of the hypoxia inducible factor (HIF) pathway” (Bioorg Med Chem Lett, 2012).

For data set [1], the target named is Mu-type opioid receptor (Homo sapiens) (UniProt P35372). As to the kind of experiment: Inhibition of human mu opioid receptor at 10 uM by radioligand displacement assay. (Displacement assays read how much labelled ligand stays bound in the presence of the test substance.)
Mu-type opioid receptor (Homo sapiens), sequence (P35372 whole entry): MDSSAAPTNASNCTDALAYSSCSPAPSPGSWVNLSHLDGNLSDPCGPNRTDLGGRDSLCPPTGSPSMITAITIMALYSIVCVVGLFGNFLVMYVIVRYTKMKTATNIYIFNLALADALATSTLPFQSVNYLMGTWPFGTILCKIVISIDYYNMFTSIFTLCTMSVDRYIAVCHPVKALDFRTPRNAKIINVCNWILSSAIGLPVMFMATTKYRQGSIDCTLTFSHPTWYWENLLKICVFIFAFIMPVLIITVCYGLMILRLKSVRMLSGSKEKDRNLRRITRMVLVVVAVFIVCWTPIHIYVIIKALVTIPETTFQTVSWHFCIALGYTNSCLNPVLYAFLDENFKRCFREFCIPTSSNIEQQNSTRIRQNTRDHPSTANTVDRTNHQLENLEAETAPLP
The species named for data set [2] is Rattus norvegicus. The data set can be described thus: Inhibition of rat L-type calcium channel dihydropyridine binding site at 10 uM by radioligand displacement assay.
Data set [3] addresses D(1A) dopamine receptor (Homo sapiens) (UniProt P21728). The data set can be described thus: Inhibition of human dopamine D1 receptor at 10 uM by radioligand displacement assay.
Data set [4] addresses T1, Adenosine receptor A3 (Homo sapiens) (UniProt P0DMS8).
T1 sequence (whole entry): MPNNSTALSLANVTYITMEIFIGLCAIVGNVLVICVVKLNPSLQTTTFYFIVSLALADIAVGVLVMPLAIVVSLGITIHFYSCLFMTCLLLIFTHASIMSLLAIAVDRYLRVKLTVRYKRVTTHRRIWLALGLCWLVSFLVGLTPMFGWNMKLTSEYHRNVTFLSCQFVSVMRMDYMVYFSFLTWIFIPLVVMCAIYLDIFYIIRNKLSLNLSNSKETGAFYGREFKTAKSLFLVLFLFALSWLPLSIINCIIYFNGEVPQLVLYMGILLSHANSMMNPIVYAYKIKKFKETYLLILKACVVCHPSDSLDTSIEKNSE
As to the kind of experiment: Inhibition of human adenosine receptor A3 at 10 uM by radioligand displacement assay.

The target in data set [5] is Sodium-dependent noradrenaline transporter (Homo sapiens) (UniProt P23975). The data set can be described thus: Inhibition of human NET at 10 uM by radioligand displacement assay.
Sodium-dependent noradrenaline transporter (Homo sapiens), sequence (P23975 whole entry): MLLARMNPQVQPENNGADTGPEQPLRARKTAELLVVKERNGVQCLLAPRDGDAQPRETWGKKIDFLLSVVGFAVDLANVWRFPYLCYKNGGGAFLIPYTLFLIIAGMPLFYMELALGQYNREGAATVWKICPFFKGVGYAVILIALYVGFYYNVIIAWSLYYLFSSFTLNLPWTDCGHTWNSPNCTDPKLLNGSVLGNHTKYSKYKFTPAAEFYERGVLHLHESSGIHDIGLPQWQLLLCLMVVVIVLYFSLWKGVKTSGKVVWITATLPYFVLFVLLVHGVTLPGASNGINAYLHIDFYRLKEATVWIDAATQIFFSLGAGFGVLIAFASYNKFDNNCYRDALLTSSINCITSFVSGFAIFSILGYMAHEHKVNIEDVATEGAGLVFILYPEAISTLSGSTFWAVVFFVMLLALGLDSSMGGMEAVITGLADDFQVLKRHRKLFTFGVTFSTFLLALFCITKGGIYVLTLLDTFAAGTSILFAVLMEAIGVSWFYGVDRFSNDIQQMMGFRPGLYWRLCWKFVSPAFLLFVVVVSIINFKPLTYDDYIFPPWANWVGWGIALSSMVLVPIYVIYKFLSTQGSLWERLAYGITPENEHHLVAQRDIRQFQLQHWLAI
Data set [6] addresses T2, Alpha-2A adrenergic receptor (Homo sapiens) (UniProt P08913).
T2 sequence (whole entry): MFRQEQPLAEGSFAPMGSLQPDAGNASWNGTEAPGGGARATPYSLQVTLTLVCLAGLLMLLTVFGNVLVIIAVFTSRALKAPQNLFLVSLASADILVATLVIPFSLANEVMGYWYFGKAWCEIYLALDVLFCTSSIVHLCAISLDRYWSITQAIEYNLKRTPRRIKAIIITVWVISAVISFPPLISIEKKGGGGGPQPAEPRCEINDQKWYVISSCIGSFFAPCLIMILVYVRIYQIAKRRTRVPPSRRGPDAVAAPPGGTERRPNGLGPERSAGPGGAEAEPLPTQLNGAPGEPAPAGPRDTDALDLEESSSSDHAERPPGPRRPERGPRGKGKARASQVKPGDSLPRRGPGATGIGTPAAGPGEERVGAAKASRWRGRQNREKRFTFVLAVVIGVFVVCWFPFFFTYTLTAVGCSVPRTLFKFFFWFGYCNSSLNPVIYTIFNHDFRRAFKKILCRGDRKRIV
As to the kind of experiment: Inhibition of human alpha2A adrenergic receptor at 10 uM by radioligand displacement assay.

The target of data set [7] is Sodium-dependent dopamine transporter (Homo sapiens) (UniProt Q01959). As to the kind of experiment: Inhibition of human DAT at 10 uM by radioligand displacement assay.
Sodium-dependent dopamine transporter (Homo sapiens), sequence (Q01959 whole entry): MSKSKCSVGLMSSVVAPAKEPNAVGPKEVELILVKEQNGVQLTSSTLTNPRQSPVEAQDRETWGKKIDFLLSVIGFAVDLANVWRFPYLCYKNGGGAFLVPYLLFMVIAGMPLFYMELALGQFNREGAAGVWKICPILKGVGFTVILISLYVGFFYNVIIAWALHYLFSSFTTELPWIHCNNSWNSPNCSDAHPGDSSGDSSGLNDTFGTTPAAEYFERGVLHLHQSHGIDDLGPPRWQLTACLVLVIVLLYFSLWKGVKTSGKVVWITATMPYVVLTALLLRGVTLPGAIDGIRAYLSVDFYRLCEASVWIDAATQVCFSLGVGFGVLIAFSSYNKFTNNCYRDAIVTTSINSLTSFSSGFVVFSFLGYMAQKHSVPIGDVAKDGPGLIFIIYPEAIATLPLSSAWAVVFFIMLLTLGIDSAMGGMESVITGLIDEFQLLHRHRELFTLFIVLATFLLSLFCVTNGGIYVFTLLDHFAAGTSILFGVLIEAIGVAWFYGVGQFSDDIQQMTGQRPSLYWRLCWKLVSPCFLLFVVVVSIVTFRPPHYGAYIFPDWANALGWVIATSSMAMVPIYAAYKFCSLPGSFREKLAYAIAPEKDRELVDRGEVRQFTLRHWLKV
The next data set addresses hERG (KCNH2) (Homo sapiens, UniProt Q12809). The data set can be described thus: Inhibition of human ERG at 10 uM by radioligand displacement assay.
Data set [8] has as its target Histamine H1 receptor (Homo sapiens) (UniProt P35367). The data set can be described thus: Inhibition of human histamine H1 receptor at 10 uM by radioligand displacement assay.
For data set [9], the system named is U2OS. The data set can be described thus: Cytotoxicity against human U2OS cells expressing human HIF1alpha by CellTiterGlo assay in presence of 50 uM zinc. Format: cell-based.
Another data set is filed under the species Homo sapiens. The data set can be described thus: Inhibition of human melatonin MT1 receptor at 10 uM by radioligand displacement assay.
Data set [10] concerns the target 5-hydroxytryptamine receptor 2B (Homo sapiens) (UniProt P41595). As to the kind of experiment: Inhibition of human 5HT2B at 10 uM by radioligand displacement assay.
Data set [11] has as its target Kappa-type opioid receptor (Homo sapiens) (UniProt P41145). As to the kind of experiment: Inhibition of human kappa opioid receptor at 10 uM by radioligand displacement assay.
For data set [12], the species on record is Rattus norvegicus. The data set can be described thus: Inhibition of rat sodium channel site 2 at 10 uM by radioligand displacement assay.
Data set [13] addresses T3, Alpha-1D adrenergic receptor (Homo sapiens) (UniProt P25100).
T3 sequence (whole entry): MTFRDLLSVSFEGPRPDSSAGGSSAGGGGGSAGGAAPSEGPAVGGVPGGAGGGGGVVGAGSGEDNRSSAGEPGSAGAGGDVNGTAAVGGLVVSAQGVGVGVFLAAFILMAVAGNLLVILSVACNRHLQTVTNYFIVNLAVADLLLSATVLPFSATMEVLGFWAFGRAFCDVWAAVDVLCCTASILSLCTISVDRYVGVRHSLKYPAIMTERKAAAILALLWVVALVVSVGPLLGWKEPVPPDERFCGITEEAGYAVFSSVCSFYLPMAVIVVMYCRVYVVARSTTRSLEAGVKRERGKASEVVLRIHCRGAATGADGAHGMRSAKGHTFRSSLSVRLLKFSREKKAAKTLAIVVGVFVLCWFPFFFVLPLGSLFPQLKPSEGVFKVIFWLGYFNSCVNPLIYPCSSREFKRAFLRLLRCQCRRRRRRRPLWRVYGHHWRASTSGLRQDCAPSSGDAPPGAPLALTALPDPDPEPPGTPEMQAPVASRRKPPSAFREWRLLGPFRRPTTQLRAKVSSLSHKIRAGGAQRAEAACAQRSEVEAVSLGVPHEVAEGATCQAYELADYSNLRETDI
The data set can be described thus: Inhibition of human alpha1D adrenergic receptor at 10 uM by radioligand displacement assay.

Data set [14] concerns the target Prostaglandin E2 receptor EP4 subtype (Homo sapiens) (UniProt P35408). As to the kind of experiment: Inhibition of human prostanoid EP4 receptor at 10 uM by radioligand displacement assay.
Data set [15] is described as follows: Inhibition of proteasome chymotrypsin-like activity using Suc-LLVY-aminoluciferin as substrate by luciferase-coupled assay. Format: subcellular.
In data set [16] the test system is U2OS. The data set can be described thus: Cytotoxicity against human U2OS cells expressing human HIF1alpha by CellTiterGlo assay in presence of 50 uM iron. Type of data set: cell-based. In general terms: ATP-based viability assays read luminescence as a measure of living cells.
In data set [17] the target is D(3) dopamine receptor (Homo sapiens) (UniProt P35462). As to the kind of experiment: Inhibition of human dopamine D3 receptor at 10 uM by radioligand displacement assay.
D(3) dopamine receptor (Homo sapiens), sequence (P35462 whole entry): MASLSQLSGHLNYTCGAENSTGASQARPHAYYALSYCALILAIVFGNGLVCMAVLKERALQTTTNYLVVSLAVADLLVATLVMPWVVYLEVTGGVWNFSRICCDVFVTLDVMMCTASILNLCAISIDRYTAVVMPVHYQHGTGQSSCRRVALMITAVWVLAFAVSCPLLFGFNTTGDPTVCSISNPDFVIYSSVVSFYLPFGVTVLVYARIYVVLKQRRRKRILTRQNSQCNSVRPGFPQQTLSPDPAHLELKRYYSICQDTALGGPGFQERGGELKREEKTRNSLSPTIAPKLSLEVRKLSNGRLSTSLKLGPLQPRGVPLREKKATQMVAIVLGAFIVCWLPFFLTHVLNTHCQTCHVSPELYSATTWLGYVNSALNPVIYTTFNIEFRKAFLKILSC

Activity calls are given as the source filed them. The rule behind the calls is not given here.

Kappa-type opioid receptor (Homo sapiens), sequence (P41145 whole entry): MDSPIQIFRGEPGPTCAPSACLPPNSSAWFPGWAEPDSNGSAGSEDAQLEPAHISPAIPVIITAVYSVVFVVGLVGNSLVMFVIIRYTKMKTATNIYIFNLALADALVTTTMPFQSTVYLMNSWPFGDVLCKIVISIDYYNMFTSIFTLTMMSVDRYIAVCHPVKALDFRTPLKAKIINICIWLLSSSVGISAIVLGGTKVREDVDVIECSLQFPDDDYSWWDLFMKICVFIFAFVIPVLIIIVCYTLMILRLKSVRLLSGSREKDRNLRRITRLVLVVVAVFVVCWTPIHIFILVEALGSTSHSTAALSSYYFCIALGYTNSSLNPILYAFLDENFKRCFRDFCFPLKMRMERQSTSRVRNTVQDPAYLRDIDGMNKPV
D(1A) dopamine receptor (Homo sapiens), sequence (P21728 whole entry): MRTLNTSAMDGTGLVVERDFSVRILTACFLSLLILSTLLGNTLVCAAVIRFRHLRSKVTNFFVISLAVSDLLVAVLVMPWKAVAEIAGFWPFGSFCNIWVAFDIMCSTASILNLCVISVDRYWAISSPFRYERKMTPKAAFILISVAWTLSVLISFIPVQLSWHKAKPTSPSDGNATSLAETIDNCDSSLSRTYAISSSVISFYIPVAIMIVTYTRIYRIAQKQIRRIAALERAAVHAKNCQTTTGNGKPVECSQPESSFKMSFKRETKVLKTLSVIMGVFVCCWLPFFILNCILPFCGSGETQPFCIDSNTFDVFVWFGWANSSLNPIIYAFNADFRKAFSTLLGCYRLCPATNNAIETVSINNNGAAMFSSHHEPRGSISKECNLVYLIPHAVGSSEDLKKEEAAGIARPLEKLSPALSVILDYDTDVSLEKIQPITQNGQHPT
Histamine H1 receptor (Homo sapiens), sequence (P35367 whole entry): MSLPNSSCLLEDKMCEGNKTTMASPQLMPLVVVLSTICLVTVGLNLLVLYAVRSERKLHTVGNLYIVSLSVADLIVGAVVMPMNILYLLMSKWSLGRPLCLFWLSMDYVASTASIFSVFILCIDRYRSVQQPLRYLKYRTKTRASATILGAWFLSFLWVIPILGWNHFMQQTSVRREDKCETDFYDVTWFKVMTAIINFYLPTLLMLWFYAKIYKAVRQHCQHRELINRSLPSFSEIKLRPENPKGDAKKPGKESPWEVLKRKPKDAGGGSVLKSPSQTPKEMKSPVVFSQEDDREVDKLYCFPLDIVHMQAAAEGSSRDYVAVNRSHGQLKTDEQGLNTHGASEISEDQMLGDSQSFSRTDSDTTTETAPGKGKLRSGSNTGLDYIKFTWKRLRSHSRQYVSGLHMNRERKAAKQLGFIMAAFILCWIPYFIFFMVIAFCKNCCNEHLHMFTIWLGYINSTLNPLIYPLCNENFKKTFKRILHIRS
5-hydroxytryptamine receptor 2B (Homo sapiens), sequence (P41595 whole entry): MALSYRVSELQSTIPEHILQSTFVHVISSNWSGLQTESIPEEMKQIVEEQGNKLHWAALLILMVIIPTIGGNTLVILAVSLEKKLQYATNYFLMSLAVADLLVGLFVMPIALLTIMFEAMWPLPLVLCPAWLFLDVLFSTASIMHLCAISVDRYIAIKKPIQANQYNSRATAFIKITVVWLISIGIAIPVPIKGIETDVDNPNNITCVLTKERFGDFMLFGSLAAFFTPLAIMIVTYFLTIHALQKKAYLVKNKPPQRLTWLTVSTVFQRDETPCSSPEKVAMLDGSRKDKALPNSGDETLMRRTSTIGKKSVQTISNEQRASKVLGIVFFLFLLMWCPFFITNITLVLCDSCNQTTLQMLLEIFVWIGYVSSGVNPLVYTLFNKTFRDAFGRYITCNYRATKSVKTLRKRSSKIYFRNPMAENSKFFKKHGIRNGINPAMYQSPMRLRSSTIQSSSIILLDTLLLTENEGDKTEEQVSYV
hERG (KCNH2), sequence (Q12809 whole entry): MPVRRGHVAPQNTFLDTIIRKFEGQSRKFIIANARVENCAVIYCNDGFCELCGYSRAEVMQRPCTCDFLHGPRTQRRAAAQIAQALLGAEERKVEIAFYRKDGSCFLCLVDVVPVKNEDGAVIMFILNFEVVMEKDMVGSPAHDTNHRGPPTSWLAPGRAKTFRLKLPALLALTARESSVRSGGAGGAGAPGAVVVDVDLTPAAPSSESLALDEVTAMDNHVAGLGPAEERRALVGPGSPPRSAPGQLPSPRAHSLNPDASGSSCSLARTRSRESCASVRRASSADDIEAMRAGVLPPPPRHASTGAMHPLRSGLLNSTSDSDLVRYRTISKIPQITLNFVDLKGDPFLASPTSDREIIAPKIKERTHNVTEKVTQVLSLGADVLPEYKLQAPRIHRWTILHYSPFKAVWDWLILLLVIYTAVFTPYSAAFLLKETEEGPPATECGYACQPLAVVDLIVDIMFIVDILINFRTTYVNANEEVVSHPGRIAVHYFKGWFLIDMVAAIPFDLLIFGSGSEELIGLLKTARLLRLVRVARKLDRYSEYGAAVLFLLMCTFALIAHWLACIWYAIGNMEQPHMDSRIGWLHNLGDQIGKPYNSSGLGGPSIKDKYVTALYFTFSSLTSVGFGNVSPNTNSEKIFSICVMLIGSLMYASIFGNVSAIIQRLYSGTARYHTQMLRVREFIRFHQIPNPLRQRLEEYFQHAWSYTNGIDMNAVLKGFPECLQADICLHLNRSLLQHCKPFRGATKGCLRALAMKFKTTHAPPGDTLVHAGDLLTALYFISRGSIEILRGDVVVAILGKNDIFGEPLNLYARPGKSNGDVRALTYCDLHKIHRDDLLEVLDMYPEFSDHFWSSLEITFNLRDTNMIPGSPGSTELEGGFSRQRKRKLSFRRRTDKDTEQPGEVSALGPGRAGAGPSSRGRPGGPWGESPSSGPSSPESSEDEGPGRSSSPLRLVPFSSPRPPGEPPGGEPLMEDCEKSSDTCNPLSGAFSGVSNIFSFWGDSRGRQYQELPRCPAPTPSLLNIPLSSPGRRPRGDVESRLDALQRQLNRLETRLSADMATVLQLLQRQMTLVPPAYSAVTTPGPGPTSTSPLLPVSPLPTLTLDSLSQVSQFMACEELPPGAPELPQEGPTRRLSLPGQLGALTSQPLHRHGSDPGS

In the case of `O=C(NCCCN1CCOCC1)c1cc(-c2ccccc2)on1`, the inhibition entry in data set [1] is “inactive”.
On to `O=C(NCC1CC1)c1cc(-c2ccccc2)on1`, for which the inhibition entry in data set [1] is “inactive”.
Regarding `O=C(NCCCn1ccnc1)c1cc(-c2ccccc2)on1`, in data set [1], the inhibition entry is “inactive”.
`O=C(NCCCCO)c1cc(-c2ccccc2)on1`: in data set [1], the inhibition entry was “inactive”.
For `CCCCNC(=O)c1cc(-c2ccc(F)cc2)on1`, the inhibition result in data set [1] is “inactive”.
As for `c1ccc(-c2ccc(CNc3nc(-c4ccccn4)nnc3-c3ccccc3)cc2)cc1`, the inhibition is 56% in the data set filed under Rattus norvegicus [2]; 54% in [3]; 80% in [4]; 67% in data set [5]; 57% in data set [6]; 87% in data set [7]. The inhibition in data set [8] stood at 65%; in the data set filed under Homo sapiens, 51%; in data set [10], 92%; in data set [11], 71%; in the data set listed under Rattus norvegicus [12], 105%; in data set [13], 53%. In addition, the inhibition was found to be 53% in [14], 85% in data set [1] and 67% in data set [17]. Besides, the inhibition at 10 µM on hERG (KCNH2) came to 86%. Besides, the Activity result in the data set on U2OS [9] and in the data set with U2OS [16] was “Non-toxic” each time. Also, the inhibition result in [15] is “inactive”.
